Test results as given in US20090247558A1, “USE OF THE CRH (CORTICOTROPIN RELEASING HORMONE) - UCN (UROCORTIN) SYSTEM IN THE TREATMENT OF INFLAMMATORY DISEASES” (priority 2002, published 2009).
No end group written: not given here.

Experiments:
[1] = tested on: RAW264.7 cells; test: Stress kinase, Bax and Fas Ligand in RAW264.7 cells (Western blot); type: cell-based, mouse
Method: Following stimulation cells were harvested and lyzed in 62.5 mM Tris HCl pH=6.8, 10% glycerol, 2% SDS, and freshly added inhibitors phenylmethylsulfonyl fluoride (10 μg/ml), 0.5 mM DTT and 50 mM Na2F.

[2] = tested on: primary bone marrow macrophages; test: Apoptosis of primary bone marrow macrophages; type: cell-based
Method: (§1) Cells were plated in 96-well plates at an initial concentration of 10,000 cells per well. Apoptosis was measured by direct determination of nucleosomal DNA fragmentation with the “cell death detection” ELISA plus kit according to the manufacturer's protocol.
(§2) Cells were treated with UCN and/or LPS at the indicated concentrations for different time points, collected in PBS and incubated with 7-amino-actinomycin (7AAD) for 10 minutes. Cells were washed and analyzed by Flow Cytometry (Coulter).

[3] = molecular target: T1, CRH-R2 receptor (Mus musculus, UniProt Q60748); conditions: cited from earlier work
T1 construct: monocyte/macrophage cells which express both the CRH-R1 and the CRH-R2 receptors on the surface; endogenous in cells; host or cells: macrophages

[4] = tested on: RAW-264.7 macrophages; test: Apoptosis and proliferation of RAW264.7 macrophages (nucleosome formation, flow cytometry); type: cell-based, mouse
Method: as §1, §2

T1 sequence (Q60748 whole entry): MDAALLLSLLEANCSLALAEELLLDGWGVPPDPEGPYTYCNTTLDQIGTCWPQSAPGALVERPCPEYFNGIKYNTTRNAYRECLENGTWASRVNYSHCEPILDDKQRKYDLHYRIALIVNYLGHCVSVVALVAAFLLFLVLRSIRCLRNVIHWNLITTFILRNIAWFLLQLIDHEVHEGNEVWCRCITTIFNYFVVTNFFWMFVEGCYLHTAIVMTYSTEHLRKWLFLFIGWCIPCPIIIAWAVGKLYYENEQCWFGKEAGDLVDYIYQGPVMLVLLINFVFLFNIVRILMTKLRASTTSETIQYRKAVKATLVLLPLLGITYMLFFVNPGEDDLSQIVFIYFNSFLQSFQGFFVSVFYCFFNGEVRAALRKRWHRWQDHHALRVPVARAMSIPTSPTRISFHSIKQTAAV

Substance: urocortin (DNPSLSIDLTFHLLRTLLELARTQSQRERAEQNRIIFDSV; ends and bridges not checked; UniProt P55089 83-122, looked up) [UCN]
- LPS-induced p38MAPK and JNK activation ([1]; UCN plus LPS): enhances
- Bax ([1]; UCN treatment): upregulation
- Fas Ligand expression ([1]; UCN treatment): enhancement
- activation of the stress-induced kinases JNK and p38MAPK ([1]; UCN treatment): rapid activation
- LPS-induced apoptosis [2]: enhanced
- apoptosis on macrophages [3]: induce apoptosis
- cell proliferation ([4]; cells cultured in the presence of serum): promoted cell proliferation
- apoptosis ([4]; serum-deprived, LPS-induced cells, 10^−9M UCN, 10 μg/ml LPS): promoted apoptosis
